Measurements from EP4800015A1, “AZABICYCLO DERIVATIVE AND PREPARATION METHOD THEREFOR, AND USE” (Zhejiang Hisun Pharmaceutical Co., Ltd., priority 2023, dated 2025).

Assays:
recombinant human WRN = target: T1, recombinant human WRN (Homo sapiens, UniProt Q14191); assay: Inhibition of WRN enzyme activity (ATPase), ADP-Glo Kinase Assay; format: biochemical; conditions: WRN protein 5 nM, Flap 0.1 nM, ATP 30 µM; read-out: IC50
T1 construct: purchased BPS 101264
Procedure, shortened: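 ATPase activity was measured by ADP-Glo luminescence after a 10-min room-temperature reaction with 30 µM ATP and 0.1 nM Flap26 oligonucleotide substrate. The 5 nM WRN had first been exposed to compound (0.004–1000 nM) for 15 min in pH 7.5 Tris buffer with 2 mM MgCl2. IC50 values came from log-concentration regression against the DMSO control.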

SW48 cells = assay: Inhibition of SW48 cell proliferation (CellTiter-Glo); format: cell-based; conditions: Homo sapiens; SW48 cells (MSI-H), 120 hours
Procedure: (§1) The following method was used to determine the effect of the compounds of the present disclosure on SW48 cell proliferation. SW48 cells (MSI-H cells) were purchased from American ATCC cell bank and cultured in Leibovitz's L-15 medium (Gibco, catalog No. 11415064) containing 10% fetal bovine serum, 100 U penicillin, and 100 µg/mL streptomycin. Cell viability was determined by CellTiter-Glo® Luminescent Cell Viability Assay kit (Promega, catalog No. G7573).
(§2) The experiment was performed according to the steps of the kit manual, which is briefly described as follows: test compounds were first dissolved in DMSO to prepare 10 mM stock solutions, and then diluted with medium to prepare test samples, with final compound concentrations ranging from 10000 nM to 1.52 nM. Cells in logarithmic growth phase were seeded into 96-well cell culture plates at a density of 500 cells per well and cultured overnight at 37 °C in an air incubator, then test compounds were added and cultivation continued for 120 hours. After the cultivation was completed, 40 µL of CellTiter-Glo detection reagent was added to each well, shaken for 5 minutes, and then left to stand for 10 minutes. Luminescence values of each well were read on a microplate reader using Luminescence mode. The percentage inhibition at each concentration point was calculated by comparison with the control group (0.1% DMSO), and then IC50 values for the compounds for inhibition of cell proliferation were obtained using nonlinear regression analysis of compound concentration logarithm versus inhibition rate in GraphPad Prism 9 software, as shown in Table 2.
The IC50 value results of the compounds of the present disclosure are represented by A, wherein "A" indicates 1 nM < IC50 ≤ 100 nM. Table 2 IC50 data for inhibition of SW48 cell proliferation by the compounds of the present disclosure

RL95-2 cells = assay: Inhibition of RL95-2 cell proliferation (CellTiter-Glo); format: cell-based; conditions: Homo sapiens; RL95-2 cells (MSI-H), 120 hours
Procedure: as §1, with “RL95-2” for “SW48”, “Cell Resource Center of Shanghai Institutes for Biological Sciences, Chinese Academy of Sciences,” for “American ATCC cell bank”, “DMEM/F12” for “Leibovitz's L-15”, “A4192001)” for “11415064)”
as §2, with “a 5% CO2” for “an air”, “incubator, and” for “incubator,”, “50” for “40”, “3.” for “2.”
The IC50 value results of the compounds of the present disclosure are represented by A, wherein "A" indicates 1 nM < IC50 ≤ 100 nM. Table 3 IC50 data for inhibition of RL95-2 cell proliferation by the compounds of the present disclosure

T1 sequence (Q14191 whole entry): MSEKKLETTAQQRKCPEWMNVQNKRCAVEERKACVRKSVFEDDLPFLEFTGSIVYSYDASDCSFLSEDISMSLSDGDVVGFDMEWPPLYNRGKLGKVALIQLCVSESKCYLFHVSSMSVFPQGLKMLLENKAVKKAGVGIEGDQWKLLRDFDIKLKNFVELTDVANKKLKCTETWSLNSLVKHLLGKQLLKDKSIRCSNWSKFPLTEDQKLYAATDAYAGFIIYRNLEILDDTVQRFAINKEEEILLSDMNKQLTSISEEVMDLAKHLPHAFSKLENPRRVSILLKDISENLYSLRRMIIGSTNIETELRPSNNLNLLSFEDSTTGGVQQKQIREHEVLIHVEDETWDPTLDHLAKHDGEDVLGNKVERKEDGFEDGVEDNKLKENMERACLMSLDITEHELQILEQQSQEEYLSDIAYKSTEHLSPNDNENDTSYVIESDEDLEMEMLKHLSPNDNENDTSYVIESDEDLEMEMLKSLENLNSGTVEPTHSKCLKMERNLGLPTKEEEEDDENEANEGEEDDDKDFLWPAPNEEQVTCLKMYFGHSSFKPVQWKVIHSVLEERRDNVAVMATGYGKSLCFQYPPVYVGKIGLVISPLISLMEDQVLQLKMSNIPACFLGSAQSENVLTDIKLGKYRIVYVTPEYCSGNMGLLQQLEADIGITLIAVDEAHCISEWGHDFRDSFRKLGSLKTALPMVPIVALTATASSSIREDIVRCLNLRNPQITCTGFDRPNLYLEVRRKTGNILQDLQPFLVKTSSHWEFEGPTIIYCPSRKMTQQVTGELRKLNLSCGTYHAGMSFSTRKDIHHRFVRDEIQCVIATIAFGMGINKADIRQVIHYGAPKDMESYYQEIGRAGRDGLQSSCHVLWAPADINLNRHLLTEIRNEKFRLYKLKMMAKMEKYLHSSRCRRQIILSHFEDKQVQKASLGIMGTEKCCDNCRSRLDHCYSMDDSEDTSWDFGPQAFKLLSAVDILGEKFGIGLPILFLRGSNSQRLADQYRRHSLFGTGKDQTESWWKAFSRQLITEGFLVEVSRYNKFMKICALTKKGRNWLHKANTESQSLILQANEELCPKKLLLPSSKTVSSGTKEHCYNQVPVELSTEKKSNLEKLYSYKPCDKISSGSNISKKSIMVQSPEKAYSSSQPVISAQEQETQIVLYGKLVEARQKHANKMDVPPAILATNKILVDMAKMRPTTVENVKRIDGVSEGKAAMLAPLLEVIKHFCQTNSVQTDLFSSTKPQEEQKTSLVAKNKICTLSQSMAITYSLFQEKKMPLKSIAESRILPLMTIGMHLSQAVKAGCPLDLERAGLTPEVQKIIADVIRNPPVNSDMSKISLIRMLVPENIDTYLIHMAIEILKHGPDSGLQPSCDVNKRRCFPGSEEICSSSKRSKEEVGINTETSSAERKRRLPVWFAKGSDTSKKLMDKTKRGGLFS

In the case of CCc1c(N2CCN(C(=O)c3ncnc(C)c3O)CC2)c(=O)n2nc(C=C3CCC3)nc2n1CC(=O)Nc1ccc(C(F)(F)F)cc1Cl [Example 33, N-(2-chloro-4-(trifluoromethyl)phenyl)-2-(2-(cyclobutylidenemethyl)-5-ethyl-6-(4-(5-hydroxy-6-methylpyrimidine-4-carbonyl)piperazin-1-yl)-7-oxo-[1,2,4]triazolo[1,5-a]pyrimidin-4(7H)-yl) acetamide], the IC50 (recombinant human WRN) is reported as less than 1 nM and the IC50 (SW48 cells) is reported as 1 to 100 nM.

CCc1c(N2CCN(C(=O)c3ncccc3O)CC2)c(=O)n2nc(C=C3CCC3)nc2n1CC(=O)Nc1ccc(S(F)(F)(F)(F)F)cc1 [Example 52, 2-(2-(cyclobutylidenemethyl)-5-ethyl-6-(4-(3-hydroxypicolinoyl)piperazin-1-yl)-7-oxo-[1,2,4]triazolo[1,5-a]pyrimidin-4(7H)-yl)-N-(4-(pentafluoro-λ^6-sulfaneyl)phenyl)acetamide] was tested, and the IC50 (recombinant human WRN) was less than 1 nM and the IC50 (SW48 cells) was 1 to 100 nM.

For CCc1c(N2CCN(C(=O)c3ncnc(C)c3O)CC2)c(=O)n2nc(-c3ccc4c(c3)CCO4)nc2n1CC(=O)Nc1ccc(S(F)(F)(F)(F)F)cc1Cl [Example 87, N-(2-chloro-4-(pentafluoro-λ^6-sulfaneyl)phenyl)-2-(2-(2,3-dihydrobenzofuran-5-yl)-5-ethyl-6-(4-(5-hydroxy-6-methylpyrimidine-4-carbonyl)piperazin-1-yl)-7-oxo-[1,2,4]triazolo[1,5-a]pyrimidin-4(7H)-yl)acetamide], the IC50 (recombinant human WRN) was 1 to 100 nM and the IC50 (SW48 cells) was 1 to 100 nM.

Work on CCc1c(C2=CCN(C(=O)c3ncnc(C)c3O)CC2)c(=O)n2nc(C3=CCCCCC3)nc2n1CC(=O)Nc1ccc(S(F)(F)(F)(F)F)cc1 [Example 91, 2-(2-(cyclohept-1-en-1-yl)-5-ethyl-6-(1-(5-hydroxy-6-methylpyrimidine-4-carbonyl)-1,2,3,6-tetra hydropyridin-4-yl)-7-oxo-[1,2,4]triazolo[1,5-a]pyrimidin-4(7H)-yl)-N-(4-(pentafluoro-λ^6-sulfaneyl)phenyl)acetamide] yielded an IC50 (recombinant human WRN) of 1 to 100 nM and an IC50 (SW48 cells) of 1 to 100 nM.

Compound CCc1c(N2CCN(C(=O)c3ncnc(C)c3O)CC2)c(=O)n2nc(-c3cc4ccccc4o3)nc2n1CC(=O)Nc1ccc(S(F)(F)(F)(F)F)cc1 [Example 96, 2-(2-(benzofuran-2-yl)-5-ethyl-6-(4-(5-hydroxy-6-methylpyrimidine-4-carbonyl)piperazin-1-yl)-7-oxo-[1,2,4]triazolo[1,5-a]pyrimidin-4(7H)-yl)-N-(4-(pentafluoro-λ^6-sulfaneyl)phenyl)acetamide] has an IC50 (recombinant human WRN) of 1 to 100 nM and an IC50 (SW48 cells) of 1 to 100 nM.

CCc1c(N2CCN(C(=O)c3ncccc3O)CC2)c(=O)n2nc(-c3ccc4c(c3)CCO4)nc2n1CC(=O)Nc1ccc(C(F)(F)F)cc1Cl [Example 104, N-(2-chloro-4-(trifluoromethyl)phenyl)-2-(2-(2,3-dihydrobenzofuran-5-yl)-5-ethyl-6-(4-(3-hydroxypicolinoyl)piperazin-1-yl)-7-oxo-[1,2,4]triazolo[1,5-a]pyrimidin-4(7H)-yl)acetamide] showed an IC50 (recombinant human WRN) of 1 to 100 nM and an IC50 (SW48 cells) of 1 to 100 nM.

Compound CCc1c(N2CCN(C(=O)c3nc(C)ccc3O)CC2)c(=O)n2nc(-c3ccc4c(c3)CCO4)nc2n1CC(=O)Nc1ccc(C(F)(F)F)cc1Cl [Example 105, N-(2-chloro-4-(trifluoromethyl)phenyl)-2-(2-(2,3-dihydrobenzofuran-5-yl)-5-ethyl-6-(4-(3-hydroxy-6-methylpicolinoyl)piperazin-1-yl)-7-oxo-[1,2,4]triazolo[1,5-a]pyrimidin-4(7H)-yl)a cetamide] has an IC50 (recombinant human WRN) of 1 to 100 nM and an IC50 (SW48 cells) of 1 to 100 nM.

CCc1c(N2CCN(C(=O)c3ncncc3O)CC2)c(=O)n2nc(-c3ccc4c(c3)CCO4)nc2n1CC(=O)Nc1ccc(C(F)(F)F)cc1Cl [Example 151, N-(2-chloro-4-(trifluoromethyl)phenyl)-2-(2-(2,3-dihydrobenzofuran-5-yl)-5-ethyl-6-(4-(5-hydroxypyrimidine-4-carbonyl)piperazin-1-yl)-7-oxo-[1,2,4]triazolo[1,5-a]pyrimidin-4(7H)-yl)acetamide] was tested, and the IC50 (recombinant human WRN) was 1 to 100 nM and the IC50 (SW48 cells) was 1 to 100 nM.

Work on Cc1ncnc(C(=O)N2CCN(c3c(C4CC4)n(CC(=O)Nc4ccc(C(F)(F)F)cc4Cl)c4nc(-c5ccc6c(c5)CCO6)nn4c3=O)CC2)c1O [Example 152, N-(2-chloro-4-(trifluoromethyl)phenyl)-2-(5-cyclopropyl-2-(2,3-dihydrobenzofuran-5-yl)-6-(4-(5-hydroxy-6-methylpyrimidine-4-carbonyl)piperazin-1-yl)-7-oxo-[1,2,4]triazolo[1,5-a]pyrimidin-4 (7H)-yl)acetamide] yielded an IC50 (RL95-2 cells) of 1 to 100 nM and an IC50 (recombinant human WRN) of 1 to 100 nM.

With Cc1ncnc(C(=O)N2CCN(c3c(C4CCC4)n(CC(=O)Nc4ccc(C(F)(F)F)cc4Cl)c4nc(-c5ccc6c(c5)CCO6)nn4c3=O)CC2)c1O [Example 155, N-(2-chloro-4-(trifluoromethyl)phenyl)-2-(5-cyclobutyl-2-(2,3-dihydrobenzofuran-5-yl)-6-(4-(5-hydroxy-6-methylpyrimidine-4-carbonyl)piperazin-1-yl)-7-oxo-[1,2,4]triazolo[1,5-a]pyrimidin-4(7H)-yl)acetamide] the IC50 (recombinant human WRN) was 1 to 100 nM and the IC50 (SW48 cells) was 1 to 100 nM.

In the case of CCc1c(N2CCN(C(=O)c3ncnc(C)c3O)CC2)c(=O)n2nc(C3=CC4CC4C3)nc2n1CC(=O)Nc1ccc(S(F)(F)(F)(F)F)cc1Cl (stereo not shown) [Example 167, 2-(2-(bicyclo[3.1.0]hex-2-en-3-yl)-5-ethyl-6-(4-(5-hydroxy-6-methylpyrimidine-4-carbonyl)piperazin-1-yl)-7-oxo-[1,2,4]triazolo[1,5-a]pyrimidin-4(7H)-yl)-N-(2-chloro-4-(pentafluoro-λ^6-sulfaneyl)phenyl)acetamide], the IC50 (RL95-2 cells) is reported as 1 to 100 nM and the IC50 (recombinant human WRN) is reported as 1 to 100 nM.

For [2H]c1cc2cc(-c3nc4n(CC(=O)Nc5ccc(C(F)(F)F)cc5Cl)c(CC)c(N5CCN(C(=O)c6ncnc(C)c6O)CC5)c(=O)n4n3)ccc2s1 [Example 169, 2-(2-(benzo[b]thiophen-5-yl-2-d)-5-ethyl-6-(4-(5-hydroxy-6-methylpyrimidine-4-carbonyl)piperazin-1-yl)-7-oxo-[1,2,4]triazolo[1,5-a]pyrimidin-4(7H)-yl)-N-(2-chloro-4-(trifluoromethyl)phenyl) acetamide], the IC50 (recombinant human WRN) was 1 to 100 nM and the IC50 (SW48 cells) was 1 to 100 nM.

[2H]c1sc2ccc(-c3nc4n(CC(=O)Nc5ccc(C(F)(F)F)cc5Cl)c(CC)c(N5CCN(C(=O)c6ncnc(C)c6O)CC5)c(=O)n4n3)cc2c1[2H] [Example 170, 2-(2-(benzo[b]thiophen-5-yl-2,3-d2)-5-ethyl-6-(4-(5-hydroxy-6-methylpyrimidine-4-carbonyl)piperazin-1-yl)-7-oxo-[1,2,4]triazolo9[1,5-a]pyrimidin-4(7H)-yl)-N-(2-chloro-4-(trifluoromethyl)phenyl)acetamide] showed an IC50 (recombinant human WRN) of 1 to 100 nM and an IC50 (SW48 cells) of 1 to 100 nM.

With CCc1c(N2CCN(C(=O)c3ncnc(C)c3O)CC2)c(=O)n2nc(C3=CCC4(CC3)CC4)nc2n1CC(=O)Nc1ccc(S(F)(F)(F)(F)F)cc1Cl [Example 174, N-(2-chloro-4-(pentafluoro-λ^6-sulfaneyl)phenyl)-2-(5-ethyl-6-(4-(5-hydroxy-6-methylpyrimidine-4-carbonyl)piperazin-1-yl)-7-oxo-2-(spiro[2.5]oct-5-en-6-yl)-[1,2,4]triazolo[1,5-a]pyrimidin-4(7 H)-yl)acetamide] the IC50 (recombinant human WRN) was 1 to 100 nM and the IC50 (SW48 cells) was 1 to 100 nM.
